Like-named read-outs stand apart in the source and are kept apart here.
Test system: primary rat mixed cortical cells
Test: In vitro myelination assay (MBP positive myelin strands, fold myelin pixels above background)
Assay type: cell-based
Conditions: Rattus norvegicus; for fold induction at 1 µM: 1.0 μM compound; for fold induction at 10 µM: 10.0 μM compound
Procedure, shortened: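 P1 rat cortical cells (neurons, OPCs, oligodendrocytes, astrocytes, microglia) were cultured 14 days at 37 °C with compound, with half-medium changes containing 1× compound on days 6 and 10. Fixed cells were immunostained for MBP and imaged at 10×. Total MBP myelin pixels per well were expressed as fold above no-compound baseline at 1.0 μM and 10.0 μM.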

[1] = relative to baseline of no added compound, read-out: Fold myelin pixels above background
[2] = read-out: Fold myelin pixels above background relative to baseline of no added compound
[3] = relative to baseline of no added compound, read-out: Fold myelin pixels above background, 1.0 μM
[4] = relative to baseline of no added compound, read-out: Fold myelin pixels above background, 10.0 μM

## Cc1cc(Nc2ncn(-c3cc(F)cc(F)c3)n2)cc([C@@]2(C)CN(C)C(=O)O2)c1 (single isomer, unassigned) [Compound 611]
[1]
  fold induction at 1 µM: 10 to 100
  fold induction at 10 µM: 1 to 10

## [2H]C1([2H])N(c2cc(C)cc(Nc3ncn(-c4cc(F)cc(F)c4)n3)c2)C([2H])([2H])C([2H])([2H])N(C2CCOC2)C1([2H])[2H] (stereo not shown) [Compound 1042, 1-(3,5-difluorophenyl)-N-[3-methyl-5-(2,2,3,3,5,5,6,6-octadeuterio-4-tetrahydrofuran-3-yl-piperazin-1-yl)phenyl]-1,2,4-triazol-3-amine]
[2]
  fold induction at 1 µM: 10 to 100
  fold induction at 10 µM: ≤ 1

## Cc1cc(Nc2ncn(-c3ccnc(Cl)c3)n2)cc(N2CCCC2)c1 [Compound 42, 1-(2-chloro-4-pyridyl)-N-(3-methyl-5-pyrrolidin-1-yl-phenyl)-1,2,4-triazol-3-amine]
[3]
  fold induction at 1 µM: 10 to 100
[4]
  fold induction at 10 µM: 100 to 1000

## NC1CN(c2cc(F)cc(Nc3ncn(-c4ccc(F)cc4F)n3)c2)C1 [Compound 283, N-[3-(3-aminoazetidin-1-yl)-5-fluoro-phenyl]-1-(2,4-difluorophenyl)-1,2,4-triazol-3-amine]
[3]
  fold induction at 1 µM: ≤ 1
[4]
  fold induction at 10 µM: ≤ 1

## Cc1cc(Nc2ncn(-c3cc(F)cc(F)c3)n2)nc(C2=CCOCC2)c1 [Compound 774, N-[1-(3,5-difluorophenyl)-1,2,4-triazol-3-yl]-6-(3,6-dihydro-2H-pyran-4-yl)-4-methyl-pyridin-2-amine]
[1]
  fold induction at 1 µM: 1 to 10
  fold induction at 10 µM: 10 to 100

## Fc1cc(-n2cnc(Nc3cc(C(F)F)cc(N4CCN(C5CC5)CC4)c3)n2)ccn1 [Compound 153, N-[3-(4-cyclopropylpiperazin-1-yl)-5-(difluoromethyl)phenyl]-1-(2-fluoro-4-pyridyl)-1,2,4-triazol-3-amine]
[3]
  fold induction at 1 µM: 100 to 1000
[4]
  fold induction at 10 µM: 10 to 100

## CC(=O)N1CCCC(c2cc(C)cc(Nc3ncn(-c4cc(F)cc(F)c4)n3)c2)C1 (stereo not shown) [Compound 266, 1-[3-[3-[[1-(3,5-difluorophenyl)-1,2,4-triazol-3-yl]amino]-5-methyl-phenyl]-1-piperidyl]ethanone]
[3]
  fold induction at 1 µM: 10 to 100
[4]
  fold induction at 10 µM: 100 to 1000

## Cc1cc(Nc2ncn(-c3cc(F)cc(F)c3)n2)cc(N2CCN(C3CCN(C)CC3)C(C)C2)c1 (stereo not shown) [Compound 925, 1-(3,5-difluorophenyl)-N-[3-methyl-5-[3-methyl-4-(1-methyl-4-piperidyl)piperazin-1-yl]phenyl]-1,2,4-triazol-3-amine]
[2]
  fold induction at 1 µM: 1 to 10
  fold induction at 10 µM: ≤ 1

## Cc1cc(CN2CCN(C3COC3)CC2)cc(Nc2ncn(-c3ccc(F)c(F)c3)n2)c1 [Compound 840, 1-(3,4-difluorophenyl)-N-[3-methyl-5-[[4-(oxetan-3-yl)piperazin-1-yl]methyl]phenyl]-1,2,4-triazol-3-amine]
[2]
  fold induction at 1 µM: 10 to 100
  fold induction at 10 µM: 10 to 100

## N#Cc1cc(Nc2ncn(-c3cnccn3)n2)cc(N2CCOCC2)c1 [Compound 666, 3-morpholino-5-[(1-pyrazin-2-yl-1,2,4-triazol-3-yl)amino]benzonitrile]
[1]
  fold induction at 1 µM: 10 to 100
  fold induction at 10 µM: 1 to 10

## Cc1cc(Nc2ncn(-c3cc(F)cc(F)c3)n2)cc(C2(F)CCN(C)C2)c1 (stereo not shown) [Compound 23, 1-(3,5-difluorophenyl)-N-[3-(3-fluoro-1-methyl-pyrrolidin-3-yl)-5-methyl-phenyl]-1,2,4-triazol-3-amine]
[3]
  fold induction at 1 µM: 10 to 100
[4]
  fold induction at 10 µM: 10 to 100

## Cc1cc(CN2CCN(C3COC3)CC2)c(F)c(Nc2ncn(-c3cc(F)cc(F)c3)n2)c1 [Compound 630, 1-(3,5-difluorophenyl)-N-[2-fluoro-5-methyl-3-[[4-(oxetan-3-yl)piperazin-1-yl]methyl]phenyl]-1,2,4-triazol-3-amine]
[1]
  fold induction at 1 µM: 1 to 10
  fold induction at 10 µM: 1 to 10

## Cc1cc(Nc2ncn(-c3cccc(OC(F)(F)F)c3)n2)cc(N2CCN(C3COC3)CC2)c1 [Compound 252, N-[3-methyl-5-[4-(oxetan-3-yl)piperazin-1-yl]phenyl]-1-[3-(trifluoromethoxy)phenyl]-1,2,4-triazol-3-amine]
[3]
  fold induction at 1 µM: 1000 to 10000
[4]
  fold induction at 10 µM: 10 to 100

## Cc1cc(NCCN2CC(C)OCC2C)cc(Nc2ncn(-c3cc(F)cc(F)c3)n2)c1 (stereo not shown) [Compound 1003, N1-[1-(3,5-difluorophenyl)-1,2,4-triazol-3-yl]-N3-[2-(2,5-dimethylmorpholin-4-yl)ethyl]-5-methyl-benzene-1,3-diamine]
[2]
  fold induction at 1 µM: 10 to 100
  fold induction at 10 µM: ≤ 1

## Cc1cc(Nc2ncn(-c3ccccc3)n2)cc(C2CCN(C3(CS(=O)(=O)c4ccccc4)COC3)CC2)c1 [Compound 51, N-[3-[1-[3-(benzenesulfonylmethyl)oxetan-3-yl]-4-piperidyl]-5-methyl-phenyl]-1-phenyl-1,2,4-triazol-3-amine]
[3]
  fold induction at 1 µM: 100 to 1000
[4]
  fold induction at 10 µM: 100 to 1000

## CC(=O)N1CCC(c2cc(C)cc(Nc3ncn(-c4cc(F)cc(F)c4)n3)c2)CC1 [Compound 90, 1-[4-[3-[[1-(3,5-difluorophenyl)-1,2,4-triazol-3-yl]amino]-5-methyl-phenyl]-1-piperidyl]ethanone]
[3]
  fold induction at 1 µM: 100 to 1000
[4]
  fold induction at 10 µM: 1 to 10

## Cc1cc(Nc2ncn(-c3cc(F)cc(F)c3)n2)cc(N2CCN(C)C(CCO)C2)c1 (stereo not shown) [Compound 1026, 2-[4-[3-[[1-(3,5-difluorophenyl)-1,2,4-triazol-3-yl]amino]-5-methyl-phenyl]-1-methyl-piperazin-2-yl]ethanol]
[2]
  fold induction at 1 µM: 1 to 10
  fold induction at 10 µM: 1 to 10

## Clc1cc(Nc2ncn(-c3cnccn3)n2)cc(N2CC(N3CCOCC3)C2)c1 [Compound 753, N-[3-chloro-5-(3-morpholinoazetidin-1-yl)phenyl]-1-pyrazin-2-yl-1,2,4-triazol-3-amine]
[1]
  fold induction at 1 µM: 10 to 100
  fold induction at 10 µM: 100 to 1000

## Cc1cc(Nc2ncn(-c3ccnc(F)c3)n2)cc(N2CCCN(C3COC3)CC2)c1 [Compound 776, 1-(2-fluoro-4-pyridyl)-N-[3-methyl-5-[4-(oxetan-3-yl)-1,4-diazepan-1-yl]phenyl]-1,2,4-triazol-3-amine]
[1]
  fold induction at 1 µM: 10 to 100
  fold induction at 10 µM: ≤ 1

## Cc1cc(Nc2ncn(-c3cnccn3)n2)cc(N2CCN(C3CC(F)(F)C3)CC2)c1 [Compound 75, N-[3-[4-(3,3-difluorocyclobutyl)piperazin-1-yl]-5-methyl-phenyl]-1-pyrazin-2-yl-1,2,4-triazol-3-amine]
[3]
  fold induction at 1 µM: ≤ 1
[4]
  fold induction at 10 µM: 100 to 1000

## Cc1cc(Nc2ncn(-c3cc(F)cc(F)c3)n2)cc(N2CCN(CCOCCO)CC2)c1 [Compound 1033, 2-[2-[4-[3-[[1-(3,5-difluorophenyl)-1,2,4-triazol-3-yl]amino]-5-methyl-phenyl]piperazin-1-yl]ethoxy]ethanol]
[2]
  fold induction at 1 µM: 1 to 10
  fold induction at 10 µM: ≤ 1

## Fc1cccc(-n2cnc(Nc3cc(N4CCN(C5COC5)CC4)cc(C(F)(F)F)c3)n2)c1 [Compound 175, 1-(3-fluorophenyl)-N-[3-[4-(oxetan-3-yl)piperazin-1-yl]-5-(trifluoromethyl)phenyl]-1,2,4-triazol-3-amine]
[3]
  fold induction at 1 µM: 1000 to 10000
[4]
  fold induction at 10 µM: ≤ 1

## Cc1cc(Nc2ncn(-c3cc(F)cc(F)c3)n2)cc(N2C3COCC2C3)c1 [Compound 694, 1-(3,5-difluorophenyl)-N-[3-methyl-5-(3-oxa-6-azabicyclo[3.1.1]heptan-6-yl)phenyl]-1,2,4-triazol-3-amine]
[1]
  fold induction at 1 µM: 10 to 100
  fold induction at 10 µM: ≤ 1

## FC(F)c1cccc(-n2cnc(Nc3cc(C(F)(F)F)cc(N4CC(N5CCOCC5)C4)n3)n2)c1 [Compound 636, N-[1-[3-(difluoromethyl)phenyl]-1,2,4-triazol-3-yl]-6-(3-morpholinoazetidin-1-yl)-4-(trifluoromethyl)pyridin-2-amine]
[1]
  fold induction at 1 µM: 1 to 10
  fold induction at 10 µM: 1 to 10

## Cc1cc(Nc2ncn(-c3ccc(F)c(F)c3)n2)cc(N2CC(N3CCOCC3)C2)c1 [Compound 720, 1-(3,4-difluorophenyl)-N-[3-methyl-5-(3-morpholinoazetidin-1-yl)phenyl]-1,2,4-triazol-3-amine]
[1]
  fold induction at 1 µM: 1 to 10
  fold induction at 10 µM: 10 to 100

## COC1CN(c2cc(F)cc(-n3cnc(Nc4cc(C5CC5)cc(N5CCN(C6COC6)CC5)c4)n3)c2)C1 [Compound 494, N-[3-cyclopropyl-5-[4-(oxetan-3-yl)piperazin-1-yl]phenyl]-1-[3-fluoro-5-(3-methoxyazetidin-1-yl)phenyl]-1,2,4-triazol-3-amine]
[1]
  fold induction at 1 µM: 100 to 1000
  fold induction at 10 µM: 10 to 100

## Fc1cccc(-n2cnc(Nc3cc(Cl)cc(N4CC(N5CCOCC5)C4)c3)n2)c1 [Compound 827, N-[3-chloro-5-(3-morpholinoazetidin-1-yl)phenyl]-1-(3-fluorophenyl)-1,2,4-triazol-3-amine]
[2]
  fold induction at 1 µM: 10 to 100
  fold induction at 10 µM: 1 to 10

## Cc1cc(Nc2ncn(-c3cc(F)cc(F)c3)n2)cc(N2CC(N3CC4CCC(C3)O4)C2)c1 [Compound 717, 1-(3,5-difluorophenyl)-N-[3-methyl-5-[3-(8-oxa-3-azabicyclo[3.2.1]octan-3-yl)azetidin-1-yl]phenyl]-1,2,4-triazol-3-amine]
[1]
  fold induction at 1 µM: 1 to 10
  fold induction at 10 µM: 10 to 100

## Cc1cc(Nc2ncn(-c3ccccc3)n2)cc(C2CCN(C3(C)COC3)CC2)c1 [Compound 294, N-[3-methyl-5-[1-(3-methyloxetan-3-yl)-4-piperidyl]phenyl]-1-phenyl-1,2,4-triazol-3-amine]
[3]
  fold induction at 1 µM: 1000 to 10000
[4]
  fold induction at 10 µM: 1000 to 10000
